Experimental data: ChEMBL document CHEMBL1144187, “Pharmacophore modeling and virtual screening for designing potential PLK1 inhibitors” (Bioorg Med Chem Lett, 2008)

Molecular target: Serine/threonine-protein kinase PLK1 (Homo sapiens, UniProt P53350)
Sequence (P53350 whole entry): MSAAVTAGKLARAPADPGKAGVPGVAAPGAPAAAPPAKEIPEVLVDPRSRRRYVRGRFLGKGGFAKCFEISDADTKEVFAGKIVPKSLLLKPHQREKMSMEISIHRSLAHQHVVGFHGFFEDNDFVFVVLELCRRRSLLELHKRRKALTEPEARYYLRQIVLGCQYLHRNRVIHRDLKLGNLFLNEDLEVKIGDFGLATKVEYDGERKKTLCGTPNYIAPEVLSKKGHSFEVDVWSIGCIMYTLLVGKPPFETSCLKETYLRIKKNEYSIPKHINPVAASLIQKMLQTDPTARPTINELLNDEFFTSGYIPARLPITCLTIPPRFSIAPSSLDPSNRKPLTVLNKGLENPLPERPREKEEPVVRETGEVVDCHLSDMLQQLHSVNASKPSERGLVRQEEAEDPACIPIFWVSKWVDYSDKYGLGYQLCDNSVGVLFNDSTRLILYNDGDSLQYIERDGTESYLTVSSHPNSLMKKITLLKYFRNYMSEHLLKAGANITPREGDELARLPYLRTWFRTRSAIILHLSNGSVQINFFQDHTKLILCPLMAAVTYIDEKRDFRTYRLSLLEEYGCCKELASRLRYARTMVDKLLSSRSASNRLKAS

| SMILES | IC50 [nM] |
| --- | --- |
| CC(C)(C)c1ccc(Nc2nc(NCc3cccnc3)ncc2-c2nn[nH]n2)cc1 | 960 |
| CCCN(CC1CC1)c1nc(NC(C)c2ccccc2)ncc1C#N (configuration not stated) | 550 |
| C=CCOC(=O)/C(C#N)=C1\S[C@@H](CNc2ccc(NC(=O)NCCN3CCCC3)cc2)C(=O)N1CC | 23 |
| FC(F)(F)c1ccc(Nc2nc(NCc3cccnc3)ncc2-c2nn[nH]n2)cc1 | 490 |
| N[C@H](COc1cncc(-c2cc3ccncc3s2)c1)Cc1c[nH]c2ccccc12 | 10000 |
| CC(Nc1ncc(C#N)c(N2CCc3ccccc3C2)n1)c1ccccc1 (configuration not stated) | 750 |
| O=c1c(O)c(-c2ccc(O)c(O)c2)oc2cc(O)cc(O)c12 [QUERCETIN] | 64000 |
| CC(=O)N(C)c1cccc(Nc2nc(NCCc3cccs3)ncc2-c2nn[nH]n2)c1 | 330 |
| c1csc(CCNc2ncc(-c3nnn[nH]3)c(Nc3ccc4c(c3)OCCO4)n2)c1 | 1040 |

Continued, values first:

| IC50 [nM] | SMILES |
| --- | --- |
| 160 | CCOC(=O)/C(C#N)=c1\s/c(=C/Nc2ccccc2F)c(=O)n1CC |
| 1600 | CCCN(CC1CC1)c1nc(NCc2ccc3c(c2)OCO3)ncc1C#N |
| 71 | C#CNC(=O)/C(C#N)=c1\s/c(=C/Nc2ccc(OCCN(C)C)cc2)c(=O)n1CC |
| 2000 | O=C1C(C2=C3C(=Nc4ccccc43)/C(=C\c3ccc(O)cc3)C2=O)=C2C(=Nc3ccccc32)/C1=C\c1ccc(O)cc1 |
| 1600 | CC(Nc1ncc(C#N)c(OCC2CCCCO2)n1)c1ccccc1 (configuration not stated) |
| 74 | CCn1c(=O)/c(=C\Nc2ccc(OCCN(C)C)cc2)s/c1=C(/C#N)C(=O)NCC(F)F |
| 530 | CN1CCN(c2ccc(C(=O)Nc3[nH]nc4c3CN(C(=O)Cc3cccs3)C4)cc2)CC1 |
| 500 | CCOC(=O)/C(C#N)=c1\s/c(=C/Nc2ccc(NC(=O)COC)cc2)c(=O)n1CC |
